Where two headings read alike, the source gives them in different places.
Tests used:
TRPVR1 = TRPVR1 (Homo sapiens, UniProt Q8NER1); format: cell-based; details: intracellular calcium; mean ± s.e.mean, n = 3-5
TRPV4 channel receptor [1] = molecular target: T1, TRPV4 channel receptor (Homo sapiens, UniProt Q9HBA0); assay: Intracellular calcium (FLIPR, Fluo-3) in HEK293 cells transfected with human TRPV4 channel receptor; format: cell-based; parameters: V5-His (from the vector's name only); expressed in transfected cells; host or cells: HEK293; key to pEC50 TRPVR4: IA = inactive; details: intracellular calcium; mean ± s.e.mean, n = 3-5
Experimental: (§1) TRPV4 channel receptor cDNA was inserted into the expression vector pcDNA3.1 V5-His (Invitrogen, Carlsbad, Calif.). Wildtype HEK293 cells, or HEK293 cells transfected with the human TRPV4 channel receptor: pcDNA3.1 V5-His construct, or mock transfected cells, or bovine chondrocytes, were seeded into 96-well microtitre plates at 25,000 cells/well and cultured overnight. The cells were then incubated with 4 μM Fluo-3 (Fluo-3: Molecular Probes (Eugene, Oreg.)) for 2 hours at room temperature in the dark. Dye loaded cells were washed 4× with Tyrodes buffer: (NaCl, 145 mM; KCl, 2.5 mM; Hepes, 10 mM; Glucose, 10 mM; MgCl2, 1.2 mM; CaCl2, 1.5 mM), which also contained 0.2% BSA but not probenecid. Agonists and antagonists were also prepared in Tyrodes buffer. Cells were preincubated for 30 minutes with antagonist or buffer. Agonist addition and measurement of cytoplasmic calcium concentration was performed in the FLIPR (Smart, et al., (2000) Br. J. Pharmacol. 129, 227-230).

wild type HEK293 cells = assay: Intracellular calcium (FLIPR) in wild type HEK293 cells; format: cell-based; parameters: key to pEC50 wild type: IA = inactive; details: intracellular calcium; mean ± s.e.mean, n = 3-5
Experimental: as §1

[2] = system: cells transfected with empty vector; assay: Intracellular calcium (FLIPR) in HEK293 cells transfected with empty vector; format: cell-based; parameters: key to pEC50 empty vector: IA = inactive; details: intracellular calcium; mean ± s.e.mean, n = 3-5
Experimental: as §1

human cartilage explants = assay: Aggrecan degradation (GAG, DMMB) in human cartilage explants; format: cell-based; details: Homo sapiens; estimated; 3-point concentration response
Experimental: Because the progression of aggrecan degradation in response to IL-1 in human cartilage is slower than in bovine cartilage, culture media was removed and replaced with fresh treatments every 2-3 days for approximately 3 weeks. For each timepoint, GAG levels were measured by DMMB assay, and cumulative data released over the entire 3 week culture period was calculated.
The data represents cumulative aggrecan degradation after 21 days in culture. […] In addition, Formula IId caused a concentration-dependent reduction of IL-1-induced aggrecan degradation. […] The estimated IC50's shown in Table 7 are very similar to those IC50's calculated from IL-1-stimulated bovine cartilage.

[3] = system: bovine articular cartilage explants; assay: IL-1 induced collagen degradation (hydroxyproline) in bovine articular cartilage explants; format: cell-based
Experimental: IL-1 stimulates collagen degradation in bovine articular cartilage explants after extended (−2-3 weeks) exposure to IL-1. Collagen breakdown was evaluated by measuring the levels of hydroxyproline, a major component of hydrolyzed collagen fibrils, using a colorimetric assay that is understood in the art. Bovine articular cartilage was stimulated with IL-1 for 18 days, in the absence or presence of Formula Ib or Formula IId (both at 1 uM). Media was removed and replaced every 2-4 days with fresh IL-1 and compound through day 18. As has been shown previously, aggrecan degradation precedes collagen breakdown in IL-1-stimulated bovine cartilage explants. Once aggrecan depletion had been achieved by day 10, media were analyzed for collagen breakdown using the hydroxyproline assay.

aggrecanase = assay: IL-1 induced aggrecanase production, chondrocyte-based aggrecanase peptide cleavage assay; format: cell-based, bovine; details: Bos taurus
Source text: Aggrecanases (ADAMTSs), in conjunction with MMPs, degrade aggrecan, one of the major matrix components in articular cartilage. […] 2003; 48(1): 119-133].

TRPV4 channel receptor [4] = molecular target: T1, TRPV4 channel receptor; assay: Ca2+ influx in human articular chondrocytes (FlexStation)
TRPV4 channel receptor [5] = molecular target: T2, TRPV4 channel receptor (Bos taurus, UniProt A0A8F4X677); assay: Ca2+ influx in bovine articular chondrocytes (FlexStation); format: cell-based
T2 construct: endogenous in cells; host or cells: bovine articular chondrocytes

[6] = system: bovine articular cartilage explants; assay: IL-1 induced aggrecan degradation (GAG release, DMMB) in bovine articular cartilage explants; format: cell-based
Source text: Articular cartilage explants isolated from newborn calves at slaughter were placed in culture, and aggrecan degradation was initiated through stimulation with IL-1. Since aggrecan degradation in this model is believed to be mediated by aggrecanase, TRPV4 channel receptor agonists that are active in the chondrocyte-based aggrecanase peptide assay (Example 11) may also be effective inhibitors in the cartilage explant assay, presumably by blocking aggrecanase production in these tissues.
At the end of the culture period, conditioned media were assayed for glycosaminoglycan (GAG) levels by colorimetric (DMMB) assay as a measure of aggrecan degradation. In bovine explants, IL-1 induced a profound increase in the amount of GAG released into the media during the 3 day culture. When cartilage was treated with IL-1 in combination with Formula IIc, there was a concentration-dependent reduction in GAG release as shown in Table 5.

TRPV4 channel receptor [7] = molecular target: T1, TRPV4 channel receptor; assay: FLIPR assay; format: cell-based
TRPV4 channel receptor [8] = molecular target: TRPV4 channel receptor (Rattus norvegicus, UniProt Q9ERZ8); assay: Ca2+ influx in rat articular chondrocytes (FlexStation); details: N = 2
Sequence of TRPV4 channel receptor (Rattus norvegicus, UniProt Q9ERZ8) (Q9ERZ8 whole entry): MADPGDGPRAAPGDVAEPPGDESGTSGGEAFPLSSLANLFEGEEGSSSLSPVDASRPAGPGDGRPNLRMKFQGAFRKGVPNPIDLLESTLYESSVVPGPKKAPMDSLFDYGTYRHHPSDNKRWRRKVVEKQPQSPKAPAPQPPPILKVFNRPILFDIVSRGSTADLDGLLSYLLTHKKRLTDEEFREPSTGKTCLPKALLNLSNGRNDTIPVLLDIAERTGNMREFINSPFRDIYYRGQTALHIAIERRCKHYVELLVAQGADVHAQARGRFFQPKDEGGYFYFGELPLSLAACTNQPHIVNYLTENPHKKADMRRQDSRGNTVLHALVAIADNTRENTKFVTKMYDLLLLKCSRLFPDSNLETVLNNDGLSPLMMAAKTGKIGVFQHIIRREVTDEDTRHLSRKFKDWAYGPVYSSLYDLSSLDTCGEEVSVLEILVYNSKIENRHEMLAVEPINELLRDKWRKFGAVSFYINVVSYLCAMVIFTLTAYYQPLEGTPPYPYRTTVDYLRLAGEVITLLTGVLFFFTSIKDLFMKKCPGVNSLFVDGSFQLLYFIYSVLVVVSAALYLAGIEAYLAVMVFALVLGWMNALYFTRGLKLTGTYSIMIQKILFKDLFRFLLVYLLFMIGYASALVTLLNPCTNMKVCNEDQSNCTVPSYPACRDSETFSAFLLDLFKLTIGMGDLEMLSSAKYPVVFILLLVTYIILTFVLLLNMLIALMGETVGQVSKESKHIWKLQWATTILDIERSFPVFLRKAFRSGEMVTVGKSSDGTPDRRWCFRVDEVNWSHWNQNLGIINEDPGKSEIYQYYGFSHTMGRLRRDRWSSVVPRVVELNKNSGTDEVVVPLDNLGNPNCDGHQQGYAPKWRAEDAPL

T1 sequence (Q9HBA0 whole entry): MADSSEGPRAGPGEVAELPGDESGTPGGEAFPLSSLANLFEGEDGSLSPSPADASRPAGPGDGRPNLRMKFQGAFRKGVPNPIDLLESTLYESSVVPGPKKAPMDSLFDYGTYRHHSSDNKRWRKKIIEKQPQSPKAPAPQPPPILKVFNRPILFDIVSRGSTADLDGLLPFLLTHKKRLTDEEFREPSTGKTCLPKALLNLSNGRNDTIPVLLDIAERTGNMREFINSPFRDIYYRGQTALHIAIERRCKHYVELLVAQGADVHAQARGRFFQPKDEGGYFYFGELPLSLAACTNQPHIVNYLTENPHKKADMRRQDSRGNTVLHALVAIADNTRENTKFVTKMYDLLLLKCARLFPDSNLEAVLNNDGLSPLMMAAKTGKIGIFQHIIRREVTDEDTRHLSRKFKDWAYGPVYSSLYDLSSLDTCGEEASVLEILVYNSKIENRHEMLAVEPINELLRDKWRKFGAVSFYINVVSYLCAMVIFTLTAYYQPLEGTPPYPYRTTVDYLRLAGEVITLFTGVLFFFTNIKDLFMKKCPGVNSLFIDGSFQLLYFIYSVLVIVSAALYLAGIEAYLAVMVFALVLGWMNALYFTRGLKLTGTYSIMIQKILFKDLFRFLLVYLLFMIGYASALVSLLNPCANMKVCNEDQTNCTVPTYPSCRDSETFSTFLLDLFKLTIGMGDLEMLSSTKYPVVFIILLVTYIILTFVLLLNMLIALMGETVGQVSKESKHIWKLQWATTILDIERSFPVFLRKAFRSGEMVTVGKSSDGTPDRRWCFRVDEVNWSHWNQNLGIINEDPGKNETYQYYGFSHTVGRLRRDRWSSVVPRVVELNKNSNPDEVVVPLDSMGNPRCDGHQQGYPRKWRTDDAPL
T2 sequence (A0A8F4X677 1-871): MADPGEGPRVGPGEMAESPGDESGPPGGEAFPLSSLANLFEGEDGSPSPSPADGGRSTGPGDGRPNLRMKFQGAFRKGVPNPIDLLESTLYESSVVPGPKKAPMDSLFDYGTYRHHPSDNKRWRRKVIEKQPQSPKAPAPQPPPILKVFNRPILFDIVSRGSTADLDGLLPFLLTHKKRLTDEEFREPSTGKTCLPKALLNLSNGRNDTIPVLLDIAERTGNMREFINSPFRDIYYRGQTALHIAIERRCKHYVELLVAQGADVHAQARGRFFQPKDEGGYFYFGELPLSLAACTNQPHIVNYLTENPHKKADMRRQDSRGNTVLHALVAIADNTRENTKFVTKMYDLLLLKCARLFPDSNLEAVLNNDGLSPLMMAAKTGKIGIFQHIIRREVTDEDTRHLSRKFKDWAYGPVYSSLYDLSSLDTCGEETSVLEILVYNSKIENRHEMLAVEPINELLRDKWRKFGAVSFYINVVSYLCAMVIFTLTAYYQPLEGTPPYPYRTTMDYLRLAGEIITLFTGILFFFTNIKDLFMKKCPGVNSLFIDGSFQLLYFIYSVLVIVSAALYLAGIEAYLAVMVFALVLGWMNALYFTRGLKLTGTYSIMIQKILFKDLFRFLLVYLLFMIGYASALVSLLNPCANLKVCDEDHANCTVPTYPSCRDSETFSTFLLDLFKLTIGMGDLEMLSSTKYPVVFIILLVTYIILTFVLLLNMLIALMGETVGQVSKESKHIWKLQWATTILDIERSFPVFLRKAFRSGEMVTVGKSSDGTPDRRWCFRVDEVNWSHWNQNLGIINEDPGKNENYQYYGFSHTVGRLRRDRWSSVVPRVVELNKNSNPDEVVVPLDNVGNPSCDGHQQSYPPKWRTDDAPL
Sequence of TRPVR1 (Q8NER1 whole entry): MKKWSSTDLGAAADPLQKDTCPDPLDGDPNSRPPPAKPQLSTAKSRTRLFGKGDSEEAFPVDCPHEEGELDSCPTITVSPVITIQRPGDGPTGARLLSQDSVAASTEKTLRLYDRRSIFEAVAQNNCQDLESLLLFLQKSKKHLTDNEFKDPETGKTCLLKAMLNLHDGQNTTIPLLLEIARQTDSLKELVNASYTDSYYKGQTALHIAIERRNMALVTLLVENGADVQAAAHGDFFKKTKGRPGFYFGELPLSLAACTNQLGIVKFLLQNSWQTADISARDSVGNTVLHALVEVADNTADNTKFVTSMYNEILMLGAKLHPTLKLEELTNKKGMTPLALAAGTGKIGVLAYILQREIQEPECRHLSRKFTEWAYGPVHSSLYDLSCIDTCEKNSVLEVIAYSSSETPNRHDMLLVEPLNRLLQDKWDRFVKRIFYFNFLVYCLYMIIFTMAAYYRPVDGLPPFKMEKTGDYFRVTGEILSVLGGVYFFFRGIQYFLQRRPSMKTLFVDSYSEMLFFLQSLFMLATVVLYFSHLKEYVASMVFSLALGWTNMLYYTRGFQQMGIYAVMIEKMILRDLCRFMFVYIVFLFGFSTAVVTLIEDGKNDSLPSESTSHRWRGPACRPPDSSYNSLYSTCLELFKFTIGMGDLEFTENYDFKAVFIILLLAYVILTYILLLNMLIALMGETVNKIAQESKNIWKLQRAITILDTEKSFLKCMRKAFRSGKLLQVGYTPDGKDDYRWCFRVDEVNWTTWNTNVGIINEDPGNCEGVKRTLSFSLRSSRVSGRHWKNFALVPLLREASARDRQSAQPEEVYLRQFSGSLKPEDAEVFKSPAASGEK

C=C(C)[C@]12C[C@@H](C)[C@@]34O[C@](Cc5ccccc5)(O[C@@H]1[C@@H]3C=C(COC(=O)Cc1ccc(O)c(OC)c1)C[C@]1(O)C(=O)C(C)=C[C@@H]41)O2 [RTX]
pEC50 TRPVR1 (TRPVR1): 8.93 ± 0.20
pEC50 TRPVR4 (TRPV4 channel receptor [1]): IA
pEC50 wild type (wild type HEK293 cells): IA
pEC50 empty vector [2]: IA

CC(C)C[C@H](NC(=O)c1cc2ccccc2n1C)C(=O)N[C@@H]1CCCN(S(=O)(=O)c2ccccc2C#N)CC1 [Formula Ib, N-{(1S)-1-[({(4R)-1-[(2-cyanophenyl)sulfonyl]hexahydro-1H-azepin-4-yl}amino)carbonyl]-3-methylbutyl}-methyl-1H-indole-2-carboxamide]
IC50 (human cartilage explants): 300 nM
Hydroxyproline Mean ± SEM ([3]; 1 uM, IL-1 50 ng/ml, media from day 14-18): 6 ± 2 µg
inhibition at 1 µM ([3]; Bos taurus, 336 h, 1 uM, IL-1 50 ng/ml, media from day 14-18): 95%
IC50 (aggrecanase): 600 nM
EC50 (TRPV4 channel receptor [4]; Ca Influx - FLEX (human) EC50, human chondrocytes): 260 nM
Ca Influx - FLEX (human) % effic. (TRPV4 channel receptor [4]; human chondrocytes): 133%
Ca Influx - FLEX (bovine) % effic. (TRPV4 channel receptor [5]; bovine chondrocytes): 119%
EC50 (TRPV4 channel receptor [5]; bovine chondrocytes, read-out: Ca Influx - FLEX (bovine) EC50): 280 nM
IC50 ([6]; Bos taurus, IL-1-stimulated bovine cartilage): 200 nM

COc1ccc(S(=O)(=O)N(Cc2cccnc2)[C@@H](C(=O)NO)C(C)C)cc1 [CGS-27023A, reference compound]
block of IL-1-induced collagen degradation [3]: completely blocked

CC(C)C[C@H](NC(=O)c1cc2ccccc2s1)C(=O)N[C@@H]1CCCN(S(=O)(=O)c2ccc(Cl)cc2)CC1=O [Formula IIc, N-{(1S)-1-[({(4R)-1-[(4-chlorophenyl)sulfonyl]-3-oxohexahydro-1H-azepin-4-yl}amino)carbonyl]-3-methylbutyl}-1-benzothiophene-2-carboxamide]
GAG release Mean ± SEM ([6]; 0.01 μM, IL-1 100 ng/ml, 3 days): 62 ± 4.82 μg/explant
GAG release Mean ± SEM ([6]; 0.03 μM, IL-1 100 ng/ml, 3 days): 59 ± 4.62 μg/explant
GAG release Mean ± SEM ([6]; 0.10 μM, IL-1 100 ng/ml, 3 days): 43 ± 3.18 μg/explant
GAG release Mean ± SEM ([6]; 1.00 μM, IL-1 100 ng/ml, 3 days): 14 ± 1.44 μg/explant
inhibition at 0.01 µM ([6]; Bos taurus, 72 h, 0.01 μM, IL-1 100 ng/ml, 3 days): -2%
inhibition at 0.03 µM ([6]; Bos taurus, 72 h, 0.03 μM, IL-1 100 ng/ml, 3 days): 4%
inhibition at 0.1 µM ([6]; Bos taurus, 72 h, 0.10 μM, IL-1 100 ng/ml, 3 days): 38%
inhibition at 1 µM ([6]; Bos taurus, 72 h, 1.00 μM, IL-1 100 ng/ml, 3 days): 98%
inhibition of aggrecan degradation ([6]; IL-1 stimulation for 12 or 21 days): Significant inhibition

CC(C)C[C@H](NC(=O)c1cc2ccccc2s1)C(=O)NCCCN(C)S(=O)(=O)c1ccc(Cl)cc1Cl [Formula IIIc, N-{(1S)-1-[({3-[[(2,4-dichlorophenyl)sulfonyl](methyl)amino]propyl}amino)carbonyl]-3-methylbutyl}-1-benzothiophene-2-carboxamide]
EC50 (TRPV4 channel receptor [7]): 370 nM
EC50 (TRPV4 channel receptor [8]; RAC EC50, rat articular chondrocytes): 140 nM
RAC % eff (TRPV4 channel receptor [8]; rat articular chondrocytes): 70%
IC50 (aggrecanase): 40 nM
EC50 (TRPV4 channel receptor [4]; HAC EC50, human articular chondrocytes, N = 2): 250 nM
HAC % eff (TRPV4 channel receptor [4]; human articular chondrocytes, N = 2): 127%
BAC % eff (TRPV4 channel receptor [5]; bovine articular chondrocytes): (94%)
EC50 (TRPV4 channel receptor [5]; bovine articular chondrocytes, read-out: BAC EC50): 310 nM

Reference: US20070259856A1, “Method for Activating Trpv4 Channel Receptors by Agonists” (priority 2004, published 2007)
